From ChEMBL document CHEMBL1681651, “A broad spectrum anticancer nucleoside with selective toxicity against human colon cells in vitro” (2011)

Assays:
Format in all cases: functional
SW-620 [1] = experiment: Growth inhibition of human SW620 cells after 48 hrs by […] growth inhibition assay; conditions: SW-620, 48 h
SW-620 [2] = experiment: Growth inhibition of human SW620 cells assessed as cell growth at 1 mM after 48 hrs by SRB assay; conditions: SW-620, 48 h, read-out: Activity
SR [3] = experiment: Growth inhibition of human SR cells assessed as cell growth at 10 uM after 48 hrs by SRB assay; conditions: read-out: Activity
HL-60(TB) [4] = experiment: Growth inhibition of human HL-60(TB) cells assessed as cell growth at 1 mM after 48 hrs by SRB assay; conditions: HL-60, 48 h, read-out: Activity
UO-31 = experiment: Growth inhibition of human UO31 cells assessed as cell growth at 1 mM after 48 hrs by SRB assay; conditions: UO-31, 48 h, read-out: Activity
NCI-H522 = experiment: Growth inhibition of human NCI-H522 cells assessed as cell growth at 1 mM after 48 hrs by SRB assay; conditions: NCI-H522, 48 h, read-out: Activity
SW-620 [5] = experiment: Growth inhibition of human SW620 cells assessed as cell growth at 0.1 uM after 48 hrs by SRB assay; conditions: SW-620, 48 h, read-out: Activity
SR [6] = experiment: Growth inhibition of human SR cells after 48 hrs by SRB assay
HCT-116 = experiment: Growth inhibition of human HCT116 cells assessed as cell growth at 1 mM after 48 hrs by SRB assay; conditions: HCT-116, 48 h, read-out: Activity
SK-MEL-28 [7] = experiment: Growth inhibition of human SK-MEL-28 cells assessed as cell growth at 0.1 uM after 48 hrs by SRB assay; conditions: SK-MEL-28, 48 h, read-out: Activity
UACC-257 = experiment: Growth inhibition of human UACC257 cells assessed as cell growth at 1 mM after 48 hrs by SRB assay; conditions: UACC-257, 48 h, read-out: Activity
[8] = Growth inhibition of human Hs 578T cells after 48 hrs by […] growth inhibition assay
HL-60(TB) [9] = experiment: Growth inhibition of human HL-60(TB) cells assessed as cell growth at 100 uM after 48 hrs by SRB assay; conditions: HL-60, 48 h, read-out: Activity
EKVX = experiment: Growth inhibition of human EKVX cells assessed as cell growth at 100 uM after 48 hrs by SRB assay; conditions: read-out: Activity
MOLT-4 [10] = experiment: Growth inhibition of human MOLT4 cells assessed as cell growth at 1 mM after 48 hrs by SRB assay; conditions: MOLT-4, 48 h, read-out: Activity
[11] = Growth inhibition of human Hs 578T cells assessed as cell growth at 100 uM after 48 hrs by SRB assay; conditions: read-out: Activity
SR [12] = experiment: Growth inhibition of human SR cells assessed as cell growth at 1 mM after 48 hrs by SRB assay; conditions: read-out: Activity
U-251 = experiment: Growth inhibition of human U251 cells assessed as cell growth at 1 mM after 48 hrs by SRB assay; conditions: U-251, 48 h, read-out: Activity
K562 [13] = experiment: Growth inhibition of human K562 cells after 48 hrs by […] growth inhibition assay; conditions: K562, 48 h
MDA-MB-468 = experiment: Growth inhibition of human MDA-MB-468 cells after 48 hrs by […] growth inhibition assay; conditions: MDA-MB-468, 48 h, read-out: LC50 (the source's name)
NCI-H322M = experiment: Growth inhibition of human NCI-H322M cells assessed as cell growth at 1 mM after 48 hrs by SRB assay; conditions: read-out: Activity
MOLT-4 [14] = experiment: Growth inhibition of human MOLT4 cells assessed as cell growth at 100 uM after 48 hrs by SRB assay; conditions: MOLT-4, 48 h, read-out: Activity
K562 [15] = experiment: Growth inhibition of human K562 cells assessed as cell growth at 0.1 uM after 48 hrs by SRB assay; conditions: K562, 48 h, read-out: Activity
SR [16] = experiment: Growth inhibition of human SR cells assessed as cell growth at 100 uM after 48 hrs by SRB assay; conditions: read-out: Activity
NCI/ADR-RES = experiment: Growth inhibition of human NCI/ADR-RES cells assessed as cell growth at 0.1 uM after 48 hrs by SRB assay; conditions: read-out: Activity
SNB-75 = experiment: Growth inhibition of human SNB75 cells assessed as cell growth at 10 uM after 48 hrs by SRB assay; conditions: SNB-75, 48 h, read-out: Activity
[17] = Growth inhibition of human Hs 578T cells assessed as cell growth at 1 uM after 48 hrs by SRB assay; conditions: read-out: Activity
SR [18] = experiment: Growth inhibition of human SR cells assessed as cell growth at 0.1 uM after 48 hrs by SRB assay; conditions: read-out: Activity
[19] = Growth inhibition of human Hs 578T cells assessed as cell growth at 0.1 uM after 48 hrs by SRB assay; conditions: read-out: Activity
K562 [20] = experiment: Growth inhibition of human K562 cells assessed as cell growth at 100 uM after 48 hrs by SRB assay; conditions: K562, 48 h, read-out: Activity
SW-620 [21] = experiment: Growth inhibition of human SW620 cells assessed as cell growth at 1 uM after 48 hrs by SRB assay; conditions: SW-620, 48 h, read-out: Activity
[22] = Growth inhibition of human Hs 578T cells assessed as cell growth at 1 mM after 48 hrs by SRB assay; conditions: read-out: Activity
SK-MEL-28 [23] = experiment: Growth inhibition of human SK-MEL-28 cells assessed as cell growth at 100 uM after 48 hrs by SRB assay; conditions: SK-MEL-28, 48 h, read-out: Activity
SK-MEL-28 [24] = experiment: Growth inhibition of human SK-MEL-28 cells assessed as cell growth at 1 uM after 48 hrs by SRB assay; conditions: SK-MEL-28, 48 h, read-out: Activity
K562 [25] = experiment: Growth inhibition of human K562 cells assessed as cell growth at 1 mM after 48 hrs by SRB assay; conditions: K562, 48 h, read-out: Activity
MCF7 = experiment: Growth inhibition of human MCF7 cells assessed as cell growth at 1 mM after 48 hrs by SRB assay; conditions: Homo sapiens, MCF7, 48 h; read-out: Activity
PC-3 [26] = experiment: Growth inhibition of human PC3 cells assessed as cell growth at 1 uM after 48 hrs by SRB assay; conditions: PC-3, 48 h, read-out: Activity
PC-3 [27] = experiment: Growth inhibition of human PC3 cells assessed as cell growth at 100 uM after 48 hrs by SRB assay; conditions: PC-3, 48 h, read-out: Activity
[28] = read-out: LC50 (the source's name)
[29] = read-out: pLC50 (the source's name) (converted)

## CNC(=O)NC[C@H]1O[C@@H](n2cnc3c(NC(=O)Nc4ccccc4)ncnc32)[C@H](O[Si](C)(C)C(C)(C)C)[C@@H]1CC(=O)N(C)OC
SW-620 [1]; read-out: GI50
  GI50: > 100 µM
SW-620 [1]; [28]
  CC50: > 100 µM
SW-620 [1]; read-out: TGI
  TGI: > 100 µM
SW-620 [1]; read-out: pGI50 (converted)
  GI50: > 100 µM
SW-620 [1]; [29]
  CC50: > 100 µM
SW-620 [1]; read-out: pTGI (converted)
  TGI: > 100 µM
SW-620 [2]
  growth at 1000 µM: 50%
SR [3]
  growth at 10 µM: 62%
HL-60(TB) [4]
  growth at 1000 µM: -58%
UO-31
  growth at 1000 µM: 32%
NCI-H522
  growth at 1000 µM: 31%
SW-620 [5]
  growth at 0.1 µM: 99%
SR [6]; read-out: GI50
  GI50: 1.27 µM
SR [6]; [28]
  CC50: 9.43 µM
SR [6]; read-out: TGI
  TGI: 3.46 µM
SR [6]; read-out: pGI50 (converted)
  GI50: 1.26 µM
SR [6]; [29]
  CC50: 9.33 µM
SR [6]; read-out: pTGI (converted)
  TGI: 3.47 µM
HCT-116
  growth at 1000 µM: 6%
SK-MEL-28 [7]
  growth at 0.1 µM: 97%
UACC-257
  growth at 1000 µM: 22%
[8]; read-out: GI50
  GI50: 5.79 µM
[8]; [28]
  CC50: > 100 µM
[8]; read-out: TGI
  TGI: > 100 µM
[8]; read-out: pGI50 (converted)
  GI50: 5.75 µM
[8]; [29]
  CC50: > 100 µM
[8]; read-out: pTGI (converted)
  TGI: > 100 µM
HL-60(TB) [9]
  growth at 100 µM: -48%
EKVX
  growth at 100 µM: 60%
MOLT-4 [10]
  growth at 1000 µM: -5%
[11]
  growth at 100 µM: 40%
SR [12]
  growth at 1000 µM: -56%
U-251
  growth at 1000 µM: 25%
K562 [13]; read-out: GI50
  GI50: 3.12 µM
K562 [13]; read-out: LC50
  LC50 (concentration killing 50% of cells): > 100 µM
K562 [13]; read-out: TGI
  TGI: > 100 µM
K562 [13]; read-out: pGI50 (converted)
  GI50: 3.09 µM
K562 [13]; read-out: pLC50 (converted)
  LC50 (concentration killing 50% of cells): > 100 µM
K562 [13]; read-out: pTGI (converted)
  TGI: > 100 µM
MDA-MB-468
  CC50: > 100 µM
NCI-H322M
  growth at 1000 µM: 73%
MOLT-4 [14]
  growth at 100 µM: -2%
K562 [15]
  growth at 0.1 µM: 95%
SR [16]
  growth at 100 µM: -53%
NCI/ADR-RES
  growth at 0.1 µM: 109%
SNB-75
  growth at 10 µM: 84%
[17]
  growth at 1 µM: 98%
SR [18]
  growth at 0.1 µM: 85%
[19]
  growth at 0.1 µM: 98%
K562 [20]
  growth at 100 µM: 17%
SW-620 [21]
  growth at 1 µM: 102%
[22]
  growth at 1000 µM: 12%
SK-MEL-28 [23]
  growth at 100 µM: 44%
SK-MEL-28 [24]
  growth at 1 µM: 106%
K562 [25]
  growth at 1000 µM: 24%

## CCOC(=O)C[C@H]1[C@@H](O[Si](C)(C)C(C)(C)C)[C@H](n2cnc3c(NC(=O)Nc4ccccc4)ncnc32)O[C@@H]1CNC(=O)NC
SW-620 [1]; read-out: GI50
  GI50: 4.8 µM
SW-620 [1]; [28]
  CC50: > 100 µM
SW-620 [1]; read-out: TGI
  TGI: 28.4 µM
SW-620 [1]; read-out: pGI50 (converted)
  GI50: 4.79 µM
SW-620 [1]; [29]
  CC50: > 100 µM
SW-620 [1]; read-out: pTGI (converted)
  TGI: 28.2 µM
SW-620 [2]
  growth at 1000 µM: -33%
SR [3]
  growth at 10 µM: 85%
HL-60(TB) [4]
  growth at 1000 µM: 22%
UO-31
  growth at 1000 µM: -69%
NCI-H522
  growth at 1000 µM: -2%
SW-620 [5]
  growth at 0.1 µM: 97%
SR [6]; read-out: GI50
  GI50: 2.23 µM
SR [6]; [28]
  CC50: > 100 µM
SR [6]; read-out: TGI
  TGI: 7.07 µM
SR [6]; read-out: pGI50 (converted)
  GI50: 2.24 µM
SR [6]; [29]
  CC50: > 100 µM
SR [6]; read-out: pTGI (converted)
  TGI: 7.08 µM
HCT-116
  growth at 1000 µM: -88%
SK-MEL-28 [7]
  growth at 0.1 µM: 104%
UACC-257
  growth at 1000 µM: 9%
MCF7
  growth at 1000 µM: -8%
[8]; read-out: GI50
  GI50: 3.6 µM
[8]; [28]
  CC50: > 100 µM
[8]; read-out: TGI
  TGI: 53.6 µM
[8]; read-out: pGI50 (converted)
  GI50: 3.63 µM
[8]; [29]
  CC50: > 100 µM
[8]; read-out: pTGI (converted)
  TGI: 53.7 µM
PC-3 [26]
  growth at 1 µM: 126%
HL-60(TB) [9]
  growth at 100 µM: -5%
EKVX
  growth at 100 µM: 53%
MOLT-4 [10]
  growth at 1000 µM: -14%
[11]
  growth at 100 µM: 18%
SR [12]
  growth at 1000 µM: -34%
U-251
  growth at 1000 µM: -61%
K562 [13]; read-out: GI50
  GI50: 3.59 µM
K562 [13]; read-out: LC50
  LC50 (concentration killing 50% of cells): > 100 µM
K562 [13]; read-out: TGI
  TGI: 32.9 µM
K562 [13]; read-out: pGI50 (converted)
  GI50: 3.63 µM
K562 [13]; read-out: pLC50 (converted)
  LC50 (concentration killing 50% of cells): > 100 µM
K562 [13]; read-out: pTGI (converted)
  TGI: 33.1 µM
MDA-MB-468
  CC50: > 100 µM
NCI-H322M
  growth at 1000 µM: 72%
MOLT-4 [14]
  growth at 100 µM: 8%
K562 [15]
  growth at 0.1 µM: 96%
SR [16]
  growth at 100 µM: -15%
PC-3 [27]
  growth at 100 µM: -47%
NCI/ADR-RES
  growth at 0.1 µM: 105%
SNB-75
  growth at 10 µM: 85%
[17]
  growth at 1 µM: 95%
SR [18]
  growth at 0.1 µM: 82%
[19]
  growth at 0.1 µM: 94%
K562 [20]
  growth at 100 µM: 19%
SW-620 [21]
  growth at 1 µM: 94%
[22]
  growth at 1000 µM: -7%
SK-MEL-28 [23]
  growth at 100 µM: 40%
SK-MEL-28 [24]
  growth at 1 µM: 106%
K562 [25]
  growth at 1000 µM: -17%
